Measurements from ChEMBL document CHEMBL5724914, “Linking interpersonal differences in gut microbiota composition and drug biotransformation activity” (2024).

Experiments:
[1] = (§1) The drug is tested on Z-009 corresponding to pig gut metagenome with ENA study accession number: PRJEB37062 and ENA sample accession number: ERS12561809 for biotransformation under anaerobic condition. The drug concentrations were measured over 9 timepoints collected between 0 and 24 hours of incubation by liquid-chromatography-coupled mass spectrometry (LC–MS); settings: 2 µM
[2] = as §1, with “Z-008” for “Z-009”, “to” for “to pig gut”, “ERS12561808” for “ERS12561809”; settings: 2 µM
[3] = as §1, with “Z-006” for “Z-009”, “mouse” for “pig”, “ERS12561806” for “ERS12561809”; settings: 2 µM
[4] = as §1, with “Z-005” for “Z-009”, “to” for “to pig gut”, “ERS12561805” for “ERS12561809”; settings: 2 µM
[5] = as §1, with “Z-002” for “Z-009”, “rabbit” for “pig”, “ERS12561802” for “ERS12561809”; settings: 2 µM
[6] = as §1, with “WLS-370” for “Z-009”, “human” for “pig”, “ERS12561793” for “ERS12561809”; settings: 2 µM
[7] = as §1, with “WLS-090” for “Z-009”, “human” for “pig”, “ERS12561753” for “ERS12561809”; settings: 2 µM
[8] = as §1, with “WLS-052” for “Z-009”, “human” for “pig”, “ERS12561747” for “ERS12561809”; settings: 2 µM
[9] = as §1, with “WLS-039” for “Z-009”, “human” for “pig”, “ERS12561746” for “ERS12561809”; settings: 2 µM
[10] = as §1, with “WLS-027” for “Z-009”, “human” for “pig”, “ERS12561744” for “ERS12561809”; settings: 2 µM
[11] = as §1, with “WLS-007” for “Z-009”, “human” for “pig”, “ERS12561742” for “ERS12561809”; settings: 2 µM
[12] = human gut metagenome, 24 h, 2 µM
[13] = human gut metagenome, 24 h, 2 µM; remark: listed apart in the source
[14] = human gut metagenome, 24 h, 2 µM; remark: listed apart in the source
[15] = human gut metagenome, 24 h, 2 µM; remark: listed apart in the source
[16] = human gut metagenome, 24 h, 2 µM; remark: listed apart in the source
[17] = human gut metagenome, 24 h, 2 µM; remark: listed apart in the source
[18] = human gut metagenome, 24 h, 2 µM; remark: listed apart in the source
[19] = human gut metagenome, 24 h, 2 µM; remark: listed apart in the source
[20] = as §1, with “WLS-073” for “Z-009”, “human” for “pig”, “ERS12561749” for “ERS12561809”; settings: 2 µM
Note: call rule not given here.

SMILES	Bacterial Biotransformation [1]	Bacterial Biotransformation [2]	Bacterial Biotransformation [3]	Bacterial Biotransformation [4]	Bacterial Biotransformation [5]	Bacterial Biotransformation [6]	Bacterial Biotransformation [7]	Bacterial Biotransformation [8]	Bacterial Biotransformation [9]	Bacterial Biotransformation [10]	Bacterial Biotransformation [11]	Bacterial Biotransformation [12]	Bacterial Biotransformation [13]	Bacterial Biotransformation [14]	Bacterial Biotransformation [15]	Bacterial Biotransformation [16]	Bacterial Biotransformation [17]	Bacterial Biotransformation [18]	Bacterial Biotransformation [19]	Bacterial Biotransformation [20]
COc1cc2nc(N3CCN(C(=O)C4COc5ccccc5O4)CC3)nc(N)c2cc1OC.CS(=O)(=O)O (centres undefined) [DOXAZOSIN MESYLATE]	Compound NOT metabolized	Compound NOT metabolized	Compound NOT metabolized	Compound metabolized	Compound NOT metabolized	Compound metabolized	Compound metabolized	Compound NOT metabolized	Compound NOT metabolized	Compound metabolized	Compound metabolized	Compound metabolized	Compound NOT metabolized	Compound metabolized	Compound metabolized	Compound metabolized	Compound NOT metabolized	Compound NOT metabolized	Compound NOT metabolized	
CN1[C@@H]2CC[C@H]1C[C@@H](OC(=O)[C@H](CO)c1ccccc1)C2 [HYOSCYAMINE]	Compound metabolized									Compound NOT metabolized	Compound metabolized		Compound NOT metabolized	Compound metabolized			Compound NOT metabolized	Compound metabolized		Compound NOT metabolized
Cc1cc2c(s1)Nc1ccccc1N=C2N1CCN(C)CC1 [OLANZAPINE]	Compound NOT metabolized	Compound NOT metabolized	Compound NOT metabolized	Compound NOT metabolized	Compound metabolized	Compound NOT metabolized		Compound NOT metabolized	Compound NOT metabolized	Compound NOT metabolized	Compound NOT metabolized	Compound NOT metabolized	Compound NOT metabolized	Compound NOT metabolized	Compound NOT metabolized	Compound metabolized		Compound metabolized	Compound NOT metabolized	
COc1ccc(Cc2nccc3cc(OC)c(OC)cc23)cc1OC [PAPAVERINE]	Compound metabolized	Compound NOT metabolized	Compound NOT metabolized	Compound metabolized	Compound metabolized	Compound metabolized	Compound metabolized	Compound metabolized	Compound metabolized	Compound metabolized	Compound metabolized	Compound metabolized	Compound metabolized	Compound metabolized		Compound metabolized	Compound NOT metabolized	Compound metabolized	Compound metabolized	
CN[C@H]1CC[C@@H](c2ccc(Cl)c(Cl)c2)c2ccccc21 [SERTRALINE]	Compound metabolized	Compound NOT metabolized	Compound NOT metabolized	Compound NOT metabolized	Compound NOT metabolized	Compound metabolized	Compound metabolized	Compound metabolized	Compound metabolized	Compound metabolized	Compound metabolized	Compound NOT metabolized	Compound NOT metabolized	Compound metabolized	Compound NOT metabolized	Compound metabolized	Compound NOT metabolized	Compound metabolized	Compound NOT metabolized	

Now from value to molecule:

Bacterial Biotransformation [1]	Bacterial Biotransformation [2]	Bacterial Biotransformation [3]	Bacterial Biotransformation [4]	Bacterial Biotransformation [5]	Bacterial Biotransformation [6]	Bacterial Biotransformation [7]	Bacterial Biotransformation [8]	Bacterial Biotransformation [9]	Bacterial Biotransformation [10]	Bacterial Biotransformation [11]	Bacterial Biotransformation [12]	Bacterial Biotransformation [13]	Bacterial Biotransformation [14]	Bacterial Biotransformation [15]	Bacterial Biotransformation [16]	Bacterial Biotransformation [17]	Bacterial Biotransformation [18]	Bacterial Biotransformation [19]	Bacterial Biotransformation [20]	SMILES
Compound metabolized	Compound NOT metabolized	Compound metabolized	Compound metabolized	Compound metabolized	Compound NOT metabolized	Compound metabolized	Compound metabolized	Compound metabolized	Compound NOT metabolized	Compound NOT metabolized	Compound NOT metabolized	Compound NOT metabolized	Compound NOT metabolized	Compound NOT metabolized	Compound NOT metabolized	Compound NOT metabolized				CSc1ccc2c(c1)C(N1CCN(C)CC1)Cc1ccccc1S2.O=C(O)/C=C\C(=O)O (centres undefined)
Compound NOT metabolized	Compound NOT metabolized	Compound NOT metabolized	Compound metabolized	Compound metabolized	Compound NOT metabolized	Compound metabolized	Compound metabolized	Compound metabolized	Compound metabolized	Compound metabolized	Compound metabolized	Compound NOT metabolized	Compound metabolized	Compound metabolized	Compound metabolized	Compound NOT metabolized	Compound metabolized			CCc1oc2ccccc2c1C(=O)c1cc(Br)c(O)c(Br)c1 [BENZBROMARONE]
Compound metabolized		Compound metabolized	Compound metabolized	Compound metabolized	Compound metabolized		Compound metabolized	Compound metabolized	Compound metabolized	Compound metabolized	Compound metabolized	Compound NOT metabolized	Compound metabolized			Compound NOT metabolized	Compound NOT metabolized	Compound metabolized	Compound metabolized	COC1=C(OC)C(=O)C(CCCCCCCCCCO)=C(C)C1=O [IDEBENONE]
Compound metabolized	Compound metabolized	Compound metabolized	Compound metabolized		Compound metabolized	Compound metabolized	Compound metabolized	Compound metabolized		Compound metabolized	Compound metabolized	Compound metabolized	Compound metabolized	Compound metabolized	Compound metabolized	Compound metabolized	Compound metabolized	Compound metabolized	Compound metabolized	CC(=O)OCC(=O)NCCCOc1cccc(CN2CCCCC2)c1 [ROXATIDINE ACETATE]
Compound metabolized	Compound metabolized	Compound NOT metabolized		Compound metabolized	Compound metabolized	Compound metabolized	Compound metabolized	Compound metabolized	Compound metabolized	Compound metabolized	Compound metabolized	Compound metabolized	Compound metabolized	Compound metabolized	Compound metabolized	Compound NOT metabolized	Compound metabolized	Compound metabolized	Compound metabolized	O=C1C(CC[S+]([O-])c2ccccc2)C(=O)N(c2ccccc2)N1c1ccccc1 (centres undefined) [SULFINPYRAZONE]
